{
  "source": "paper PMC4085509",
  "about": "“Extended treatment of Cushing’s disease with pasireotide: results from a 2-year, Phase II study” (Pituitary, 2013)",
  "key": {"sst2": {"tested_on": "sst2", "design": "method as in PMID 11980628", "conditions": "cited from earlier work"}, "[1]": {"experiment": "HbA1c and fasting plasma glucose monitoring", "assay_type": "in vivo, human", "method": "(§1) Safety was assessed by recording all AEs, as well as by regular monitoring of vital signs, physical condition, body weight, hematology and blood chemistry. HbA1c levels were recorded at extension baseline and then every 16 weeks. HbA1c categories were: <upper limit of normal (ULN; normal defined as <5.7 %), between the ULN and 7 %, between 7 and 9 %, and over 9 %.\n(§2) Patient visits occurred every 2 weeks for the first 3 months and then every 3 months for assessments of UFC, serum cortisol, plasma ACTH, hematology, blood chemistry, HbA1c, electrocardiogram (ECG) and vital signs. Patients were referred to a diabetes specialist for evaluation and appropriate management if any of the following were present: […]"}, "[2]": {"tested_on": "urinary free cortisol (UFC)", "experiment": "24-h urinary free cortisol (UFC), ECLIA after dichloromethane extraction, extension study", "assay_type": "in vivo, human", "method": "(§3) The primary efficacy outcome was the proportion of patients with normalized UFC levels after 6 months of treatment (normal UFC range: 55–276 nmol/24 h; 20–100 μg/24 h). Secondary objectives included assessment of the safety and tolerability of multiple doses of pasireotide and trough plasma concentrations of pasireotide after chronic dosing.\nPatients were classified as ‘UFC responders’ if their mean UFC level at month 6 was in the normal range; as ‘UFC reducers’ if their mean UFC level at month 6 was lower than that at core study baseline but not within normal limits; and as ‘UFC non-reducers’ if their mean UFC level at month 6 was equal to or higher than that at core study baseline or if the mean UFC level at month 6 was missing. Patients who discontinued prior to month 6 were classified as non-responders.\n(§4) Blood samples for serum cortisol, plasma ACTH and pharmacokinetic assessments were collected before the morning pasireotide dose on study visit days. UFC assays were conducted in two central laboratories, one in Europe and the other in the US. Serum cortisol and plasma ACTH assays were assessed centrally by one laboratory (see Supplementary Material for further details).\n(§5) UFC levels were measured with two 24-hour urine specimens collected in the 48 hours prior to core baseline and at study visits during the extension study. Serum cortisol was measured with electrochemiluminescence immunoassay (ECLIA), using the Elecsys® cortisol reagent kit (Roche Diagnostics, Indianapolis, IN, USA), which has a lower limit of quantification (LLOQ) of […] (0.018 μg/dL) and intra- and inter-assay coefficients of variation of 1.2% and 1.4%, respectively. UFC levels were measured with ECLIA, using the Elecsys® cortisol reagent kit with prior dichloromethane extraction to reduce the amount of cortisol metabolites and conjugates."}, "serum cortisol": {"tested_on": "serum cortisol", "experiment": "Serum cortisol, ECLIA (Elecsys), pre-morning-dose samples", "assay_type": "in vivo, human", "method": "as §4, §5"}, "sst3": {"tested_on": "sst3", "design": "method as in PMID 11980628", "conditions": "cited from earlier work"}, "[3]": {"tested_on": "patients with Cushing's disease", "experiment": "Adverse events and discontinuations in the extension study", "assay_type": "in vivo, human", "method": "as §1"}, "sst1": {"tested_on": "sst1", "conditions": "cited from earlier work"}, "plasma ACTH": {"tested_on": "plasma ACTH", "experiment": "Plasma ACTH, Immulite 2000 ACTH kit, pre-morning-dose samples", "assay_type": "in vivo, human", "conditions": "Day 15, n=18, normal <10", "method": "as §4\n(§6) Plasma ACTH was assayed with the Immulite® 2000 ACTH kit (DPC, Los Angeles, CA, USA), which has a lower limit of detection of 9 pg/mL (1.98 pmol/L) and intra- and inter-assay coefficients of variation of 7.7% and 8.5%, respectively. Pasireotide plasma concentrations were measured using a validated radioimmunoassay with an LLOQ of 150 pg/mL."}, "sst5": {"tested_on": "sst5", "design": "method as in PMID 11980628", "conditions": "cited from earlier work"}, "[4]": {"tested_on": "patients with Cushing's disease", "experiment": "Electrocardiogram intervals", "assay_type": "in vivo, human", "conditions": "number of patients", "description": "as §2"}, "[5]": {"experiment": "Trough plasma concentration of pasireotide, radioimmunoassay", "assay_type": "in vivo, human", "conditions": "for level at 4320 h: human, read-out: Ctrough, mean ± SD", "method": "as §3, §4, §6"}, "[6]": {"tested_on": "urinary free cortisol (UFC)", "conditions": "15-day core study, 600 μg sc bid, cited from earlier work"}, "[7]": {"conditions": "at some point during the extension, of six shifted"}, "[8]": {"conditions": "of 16 with normal FPG at extension baseline, at some point"}, "[9]": {"conditions": "safety population n=19, regardless of study-drug relationship"}},
  "note": "Read-outs that look alike come from different tables or passages of the source. *1 amine or outer side, *2 acyl side, *3 side chain or, on linkers, in order; H or OH if unused. Where a SMILES comes first, the peptide text is derived from it. Side-chain parts run from the residue outwards. [ ]: non-standard residue; d: D form. The star is where a group is joined. Ethylenediamine = C(CN[*:2])N[*:1]; Hyp = O=C(O)[C@@H]1C[C@@H](O)CN1; Phg = N[C@H](C(=O)O)c1ccccc1; CO = O=C([*:1])[*:2]; Bn = c1ccc(C*)cc1",
  "data": [
    {"molecule": "NCCCC[C@@H]1NC(=O)[C@@H](Cc2c[nH]c3ccccc23)NC(=O)[C@H](c2ccccc2)NC(=O)[C@@H]2C[C@@H](OC(=O)NCCN)CN2C(=O)[C@H](Cc2ccccc2)NC(=O)[C@H](Cc2ccc(OCc3ccccc3)cc2)NC1=O", "note": "[pasireotide] (cyclo([Hyp]([CO-Ethylenediamine])[Phg][dW]KY(Bn)F))", "values": [
      {"measurement": "Affinity for sst2", "setting": "sst2", "value": "high affinity"},
      {"measurement": "Patients with HbA1c shifted to a higher category with levels <7%", "setting": "[1]; [7]", "value": "three"},
      {"measurement": "Patients with HbA1c shifted to between 7% and 9%", "setting": "[1]; [7]", "value": "three"},
      {"measurement": "Patients with post-baseline HbA1c shifted to a higher category", "setting": "[1]; at some point during the extension, eight with baseline values", "value": "Six"},
      {"measurement": "Shifts to levels of HbA1c >9%", "setting": "[1]; during the extension", "value": "no shifts"},
      {"measurement": "Patients with an increase in fasting plasma glucose level at some point during the extension", "setting": "[1]; in vivo", "value": "All patients"},
      {"measurement": "Patients with improved FPG levels at their last assessment", "setting": "[1]; in vivo", "value": "All patients"},
      {"measurement": "Patients whose FPG shifted to between 100 and <126 mg/dL (5.6 to <7.0 mmol/L)", "setting": "[1]; [8]", "value": "six"},
      {"measurement": "Patients whose FPG shifted to between 126 and <200 mg/dL (7.0 to <11.1 mmol/L)", "setting": "[1]; [8]", "value": "four"},
      {"measurement": "Patients whose FPG shifted to ≥200 mg/dL (≥11.1 mmol/L)", "setting": "[1]; [8]", "value": "six"},
      {"measurement": "Patients with HbA1c shifted to >ULN but <7% at last assessment", "setting": "[1]; of five remaining higher", "value": "four"},
      {"measurement": "Patients with HbA1c shifted to between 7% and 9% at last assessment", "setting": "[1]; of five remaining higher", "value": "one"},
      {"measurement": "Patients remaining at a higher post-baseline HbA1c level at last assessment", "setting": "[1]; of the six shifted", "value": "Five"},
      {"measurement": "UFC, mean ± SD", "setting": "[2]; Day 15, n=17, primary efficacy population, normal 55–276", "value": "522 ± 302", "unit": "nmol/24 h"},
      {"measurement": "Proportion of patients with normal UFC levels (UFC responders)", "setting": "[2]; Month 6, 4 of 18 patients, primary efficacy analysis, 95 % CI 6.4–47.6", "value": 22.2, "unit": "%"},
      {"measurement": "Proportion of patients with reduction in mean UFC but not to within normal range (UFC reducers)", "setting": "[2]; Month 6, 6 of 18 patients", "value": 33.3, "unit": "%"},
      {"measurement": "Proportion of patients with lower UFC than at core baseline", "setting": "[2]; Month 6, 10 of 18 patients", "value": 56, "unit": "%"},
      {"measurement": "UFC, mean ± SD", "setting": "[2]; Month 6, n=11, primary efficacy population", "value": "421 ± 340", "unit": "nmol/24 h"},
      {"measurement": "UFC, mean ± SD", "setting": "[2]; Month 12, n=4, primary efficacy population", "value": "398 ± 220", "unit": "nmol/24 h"},
      {"measurement": "UFC, mean ± SD", "setting": "[2]; Month 24, n=4, primary efficacy population", "value": "514 ± 456", "unit": "nmol/24 h"},
      {"measurement": "Number of patients with >50 % reduction in mean UFC from core baseline", "setting": "[2]; Month 24, of four patients on study drug", "value": "three"},
      {"measurement": "Number of patients with normalized UFC", "setting": "[2]; Month 24, of the four patients who remained on study drug", "value": "one"},
      {"measurement": "Serum cortisol, mean ± SD", "setting": "serum cortisol; Day 15, n=18, normal 221–690 (09:00 h)", "value": "698 ± 161", "unit": "nmol/L"},
      {"measurement": "Serum cortisol, mean ± SD", "setting": "serum cortisol; Month 6, n=11", "value": "559 ± 300", "unit": "nmol/L"},
      {"measurement": "Affinity for sst3", "setting": "sst3", "value": "high affinity"},
      {"measurement": "Hyperglycemia-related AEs, proportion of patients", "setting": "[3]; 13/19, treatment period", "value": 68, "unit": "%"},
      {"measurement": "Deaths during the study", "setting": "[3]; in vivo", "value": "No patients died"},
      {"measurement": "Patients with grade 4 AEs", "setting": "[3]; increased γ-glutamyltransferase, type 2 diabetes mellitus, both suspected drug related", "value": "Two"},
      {"measurement": "Patients with at least one AE during the study", "setting": "[3]; n=19", "value": "All patients"},
      {"measurement": "Patients reporting a hyperglycemia-related adverse event", "setting": "[3]; of 19", "value": "Thirteen"},
      {"measurement": "Discontinuation because of AE (new-onset type 2 diabetes mellitus)", "setting": "[3]; one of 19 patients", "value": 5.3, "unit": "%"},
      {"measurement": "Adverse event: Abdominal pain", "setting": "[3]; [9]", "value": "9 (47.4) n (%)"},
      {"measurement": "Adverse event: Diarrhea", "setting": "[3]; [9]", "value": "13 (68.4) n (%)"},
      {"measurement": "Adverse event: Dizziness", "setting": "[3]; [9]", "value": "5 (26.3) n (%)"},
      {"measurement": "Adverse event: Fatigue", "setting": "[3]; [9]", "value": "5 (26.3) n (%)"},
      {"measurement": "Adverse event: Headache", "setting": "[3]; [9]", "value": "7 (36.8) n (%)"},
      {"measurement": "Adverse event: Hyperglycemia", "setting": "[3]; [9]", "value": "11 (57.9) n (%)"},
      {"measurement": "Adverse event: Injection-site pain", "setting": "[3]; [9]", "value": "6 (31.6) n (%)"},
      {"measurement": "Adverse event: Injection-site pruritus", "setting": "[3]; [9]", "value": "5 (26.3) n (%)"},
      {"measurement": "Adverse event: Nausea", "setting": "[3]; [9]", "value": "12 (63.2) n (%)"},
      {"measurement": "Discontinuation because of unsatisfactory therapeutic effect", "setting": "[3]; three of 19 patients, after 5–10 months", "value": 15.8, "unit": "%"},
      {"measurement": "Discontinuation because of abnormal laboratory value", "setting": "[3]; two of 19 patients: one increased HbA1c and glucose, one elevated UFC", "value": 10.5, "unit": "%"},
      {"measurement": "Affinity for sst1", "setting": "sst1", "value": "high affinity"},
      {"measurement": "Plasma ACTH, mean ± SD", "setting": "plasma ACTH", "value": "12.4 ± 8.9", "unit": "pmol/L"},
      {"measurement": "Affinity for sst5", "setting": "sst5", "value": "highest affinity"},
      {"measurement": "Newly occurring QT of 450–480 ms", "setting": "[4]", "value": "One patient"},
      {"measurement": "Newly occurring QTcB of 450–480 ms", "setting": "[4]", "value": "another patient"},
      {"measurement": "QRS interval of >110 ms (not clinically significant)", "setting": "[4]", "value": "one patient"},
      {"measurement": "Ctrough", "setting": "[5]; Month 6, UFC non-reducers, n=1", "value": 5.2, "unit": "ng/mL"},
      {"measurement": "level at 4320 h", "setting": "[5]; Month 6, UFC reducers, n=6, SD", "value": "19.1 ± 10.9", "unit": "ng/mL"},
      {"measurement": "level at 4320 h", "setting": "[5]; Month 6, UFC responders, n=4, LLOQ 150 pg/mL, SD", "value": "17.4 ± 11.6", "unit": "ng/mL"},
      {"measurement": "Proportion of patients with reduced UFC levels", "setting": "[6]; 22/29 patients", "value": 76, "unit": "%"},
      {"measurement": "Proportion of patients with normalized UFC", "setting": "[6]; five patients", "value": 17, "unit": "%"}
    ]}
  ]
}
